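Assay format: 96-well plates, 48-hour exposure. The concentration for 50% growth inhibition is given as GI50.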 Active and inactive are the calls of the source. Cut-off read from the data, not from the text of the source: active = GI50 up to about 1.1 µM and inactive = higher.
What was measured:
Assay in all cases: NCI anticancer screen, dose series, 48 h
RPMI-8226 = test system: RPMI-8226
SK-MEL-5 = test system: SK-MEL-5
Hs-578T = test system: Hs-578T
NCI-H226 = test system: NCI-H226
786-0 = test system: 786-0
HOP-62 = test system: HOP-62
SK-MEL-28 = test system: SK-MEL-28
SNB-75 = test system: SNB-75
SF-539 = test system: SF-539
EKVX = test system: EKVX
UACC-257 = test system: UACC-257
RXF 393 = test system: RXF 393
UO-31 = test system: UO-31
SW-620 = test system: SW-620
T47D = test system: T47D
SNB-19 = test system: SNB-19
ACHN = test system: ACHN
U-251 = test system: U-251
LOX IMVI = test system: LOX IMVI

Row | SMILES | GI50 (RPMI-8226) | GI50 (SK-MEL-5) | GI50 (Hs-578T) | GI50 (NCI-H226) | GI50 (786-0) | GI50 (HOP-62) | GI50 (SK-MEL-28) | GI50 (SNB-75) | GI50 (SF-539) | GI50 (EKVX) | GI50 (UACC-257) | GI50 (RXF 393) | GI50 (UO-31) | GI50 (SW-620) | GI50 (T47D) | GI50 (SNB-19) | GI50 (ACHN) | GI50 (U-251) | GI50 (LOX IMVI)
1 | CN(C)C/C=C(/c1ccc(Br)cc1)c1cccnc1 | 34.7 µM (inactive) | 19.7 µM (inactive) | 48 µM (inactive) | > 100 µM (inactive) | 94 µM (inactive) | 45 µM (inactive) | 17.9 µM (inactive) | 51.5 µM (inactive) | > 100 µM (inactive) | > 100 µM (inactive) | 18.2 µM (inactive) | 30.6 µM (inactive) | 42.8 µM (inactive) | > 100 µM (inactive) | 58.7 µM (inactive) | > 100 µM (inactive) | > 100 µM (inactive) | 98.4 µM (inactive) | 
2 | Cc1ccc(-c2nc(-c3nccc4ccccc34)oc2-c2ccccc2)cc1 | 38.4 µM (inactive) | 28.1 µM (inactive) | 75 µM (inactive) | > 100 µM (inactive) | 26.6 µM (inactive) | > 100 µM (inactive) | > 100 µM (inactive) | 31.6 µM (inactive) | 46 µM (inactive) | 20.6 µM (inactive) | 85.3 µM (inactive) | 33.4 µM (inactive) | 95.9 µM (inactive) | 88.3 µM (inactive) | 68.2 µM (inactive) | > 100 µM (inactive) | 92.9 µM (inactive) | 72.9 µM (inactive) | 20.3 µM (inactive)
3 | CCOC(=O)/C(C#N)=C/c1ccnc2ccccc12 | 25.4 µM (inactive) | 31.7 µM (inactive) | > 100 µM (inactive) | > 100 µM (inactive) | 61.9 µM (inactive) | > 100 µM (inactive) | 88.5 µM (inactive) | > 100 µM (inactive) | 20.2 µM (inactive) | > 100 µM (inactive) | > 100 µM (inactive) | > 100 µM (inactive) |  | 9.79 µM (inactive) | > 100 µM (inactive) | 81.7 µM (inactive) | > 100 µM (inactive) | > 100 µM (inactive) | 15.6 µM (inactive)
4 | Cc1ccc(N(C=O)c2c([N+](=O)[O-])cc([N+](=O)[O-])c3c2=[N+]([O-])CN=3)cc1 | 20.7 µM (inactive) | 13.5 µM (inactive) | 29 µM (inactive) | > 100 µM (inactive) | 27 µM (inactive) | 60 µM (inactive) | 49.4 µM (inactive) | 33.7 µM (inactive) | 32 µM (inactive) | > 100 µM (inactive) | 21 µM (inactive) | 20.7 µM (inactive) | 29.3 µM (inactive) | 45.4 µM (inactive) | 17.5 µM (inactive) | 66.8 µM (inactive) | 24.8 µM (inactive) | 28.4 µM (inactive) | 21.9 µM (inactive)
5 | N#CC(C#N)=CNC(N)=S | > 100 µM (inactive) | > 100 µM (inactive) | > 100 µM (inactive) | > 100 µM (inactive) | > 100 µM (inactive) | > 100 µM (inactive) | > 100 µM (inactive) | > 100 µM (inactive) | > 100 µM (inactive) | > 100 µM (inactive) | > 100 µM (inactive) | > 100 µM (inactive) |  | > 100 µM (inactive) | > 100 µM (inactive) | > 100 µM (inactive) | > 100 µM (inactive) | > 100 µM (inactive) | > 100 µM (inactive)
6 | COC(=O)[C@]1(C)CCC[C@]2(C)[C@H]3CC[C@]4(C(C)C)OO[C@@H](O4)[C@]34O[C@@H]4C[C@H]21 | 3.44 µM (inactive) | 1.69 µM (inactive) | 2.63 µM (inactive) | 4.49 µM (inactive) | 1.6 µM (inactive) | 2.12 µM (inactive) | 16.3 µM (inactive) | 3.87 µM (inactive) | 10.6 µM (inactive) | 1.87 µM (inactive) | 14.9 µM (inactive) | 4.28 µM (inactive) | 0.641 µM (active) | 3.1 µM (inactive) | 1.76 µM (inactive) | 10.8 µM (inactive) | 0.56 µM (active) | 3.65 µM (inactive) | 0.35 µM (active)
7 | CO[C@@H](c1ccccc1)[C@H](O)[C@@](O)(c1ccccc1)P(=O)(OC)OC | > 100 µM (inactive) | > 100 µM (inactive) | > 100 µM (inactive) | > 100 µM (inactive) | > 100 µM (inactive) |  | > 100 µM (inactive) | > 100 µM (inactive) | > 100 µM (inactive) | > 100 µM (inactive) | > 100 µM (inactive) | > 100 µM (inactive) | > 100 µM (inactive) | > 100 µM (inactive) | > 100 µM (inactive) | > 100 µM (inactive) | > 100 µM (inactive) | > 100 µM (inactive) | > 100 µM (inactive)
8 | O=C(CSc1nc2ccc(Cl)cc2c(=O)n1-c1ccccc1)N/N=C1\C(=O)Nc2ccc(F)cc21 | 1.77 µM (inactive) | 3.13 µM (inactive) | 4.25 µM (inactive) | 3.5 µM (inactive) | 2.1 µM (inactive) | 1.75 µM (inactive) | 3.05 µM (inactive) | 2.24 µM (inactive) | 2.86 µM (inactive) | 3 µM (inactive) | 3.56 µM (inactive) | 1.76 µM (inactive) | 0.189 µM (active) | 2.33 µM (inactive) | 2.07 µM (inactive) | 2.97 µM (inactive) | 1.98 µM (inactive) | 1.74 µM (inactive) | 1.78 µM (inactive)
9 | O=c1[nH]cnc2c1ncn2C1SC(CO)C(O)C1O (stereo not given) | > 100 µM (inactive) | > 100 µM (inactive) | > 100 µM (inactive) | > 100 µM (inactive) | > 100 µM (inactive) | > 100 µM (inactive) | > 100 µM (inactive) | > 100 µM (inactive) | > 100 µM (inactive) | > 100 µM (inactive) | > 100 µM (inactive) | > 100 µM (inactive) | > 100 µM (inactive) | > 100 µM (inactive) | > 100 µM (inactive) | > 100 µM (inactive) | > 100 µM (inactive) | > 100 µM (inactive) | > 100 µM (inactive)
10 | O=c1c2c(-c3ccccc3)onc2n(-c2ccccc2)c(=O)n1-c1ccccc1 | > 100 µM (inactive) | > 100 µM (inactive) | 28.4 µM (inactive) | 26.1 µM (inactive) | > 100 µM (inactive) | 21.8 µM (inactive) |  | 27.8 µM (inactive) | > 100 µM (inactive) | 20.3 µM (inactive) | 19.7 µM (inactive) | > 100 µM (inactive) | 14.9 µM (inactive) | > 100 µM (inactive) | > 100 µM (inactive) | 27.4 µM (inactive) | 31.2 µM (inactive) | > 100 µM (inactive) | > 100 µM (inactive)
11 | CO[C@@H]1O[C@H](C(=O)c2ccccc2)[C@H]2OC(C)(C)O[C@@H]12 | > 100 µM (inactive) | > 100 µM (inactive) | 83 µM (inactive) | > 100 µM (inactive) | > 100 µM (inactive) | > 100 µM (inactive) |  | 96.8 µM (inactive) | > 100 µM (inactive) | 86.5 µM (inactive) | > 100 µM (inactive) | > 100 µM (inactive) | > 100 µM (inactive) | 56.8 µM (inactive) | > 100 µM (inactive) | > 100 µM (inactive) |  | > 100 µM (inactive) | > 100 µM (inactive)
12 | CC(C)C1CC(CO)(CNc2nc(N)nc(Cl)c2/C=N\O)C1 (stereo not given) | 2.64 µM (inactive) | 0.71 µM (active) | 15.9 µM (inactive) | 14.8 µM (inactive) | 18.2 µM (inactive) | 21.9 µM (inactive) | 12.8 µM (inactive) | 12.5 µM (inactive) | 16.8 µM (inactive) | 0.264 µM (active) | 0.656 µM (active) | 18.8 µM (inactive) | 9.27 µM (inactive) | 22.5 µM (inactive) | 1.25 µM (inactive) | 20.1 µM (inactive) | 8.51 µM (inactive) | 14.5 µM (inactive) | 0.339 µM (active)
13 | O=c1[nH]c(=O)n(C2CC(O)C(CO)O2)cc1OC/C=C/Cc1ccccc1 (stereo not given) | > 100 µM (inactive) | > 100 µM (inactive) | > 100 µM (inactive) | > 100 µM (inactive) | > 100 µM (inactive) | > 100 µM (inactive) | > 100 µM (inactive) | > 100 µM (inactive) |  | > 100 µM (inactive) | > 100 µM (inactive) | > 100 µM (inactive) | > 100 µM (inactive) |  | > 100 µM (inactive) | > 100 µM (inactive) | > 100 µM (inactive) | > 100 µM (inactive) | > 100 µM (inactive)
14 | Nc1cc2c3c(c1)Oc1cc(N)cc4c1C3c1c(cc(N)cc1O4)O2 | 14.7 µM (inactive) | 11.9 µM (inactive) | 24.2 µM (inactive) | 3.07 µM (inactive) | 25.3 µM (inactive) | 25.7 µM (inactive) | 47.3 µM (inactive) | 19.3 µM (inactive) | 15.7 µM (inactive) | 11.6 µM (inactive) | 30.5 µM (inactive) | 12.3 µM (inactive) | 47.2 µM (inactive) | 33.7 µM (inactive) | 20.7 µM (inactive) | 37.5 µM (inactive) | 22 µM (inactive) | 43.1 µM (inactive) | 17.9 µM (inactive)
15 | O=c1[nH]c(Nc2cccc(C(F)(F)F)c2)nc2[nH]cnc12 | > 100 µM (inactive) | 40.1 µM (inactive) | 75.7 µM (inactive) | > 100 µM (inactive) | > 100 µM (inactive) | > 100 µM (inactive) | > 100 µM (inactive) | 71.1 µM (inactive) | > 100 µM (inactive) | > 100 µM (inactive) | > 100 µM (inactive) | > 100 µM (inactive) |  | > 100 µM (inactive) | > 100 µM (inactive) | > 100 µM (inactive) | > 100 µM (inactive) | > 100 µM (inactive) | > 100 µM (inactive)

From ChEMBL document CHEMBL1201862, “PubChem BioAssay data set” (2004)
